Results published in patent publication US20240360157A1, “TYK2 INHIBITORS” (BIOGEN MA INC., priority 2021, published 2024).

Key:
Assay type in all cases: biochemical
[1] = target: human JAK1 catalytic kinase (JH1) domain (Homo sapiens (Human), UniProt P23458); test: ADP-Glo Kinase Assay, recombinant JAK1 catalytic kinase (JH1) domain; details: recombinant JH1 domain 4 nM, 35 μM ATP, JAK3-342 peptide, mean, read-out: JAK1 biochem IC50 (nM) Mean
Outline: (§1)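 Reactions ran 100 min with 50 μM substrate peptide (JAK3-342 for JAK1 at 4 nM enzyme; JAK3-974 for JAK2 0.2 nM, JAK3 0.3 nM, TYK2 2 nM), and ADP formed was read by ADP-Glo luminescence. Eleven-point 3-fold series from 10 or 1 μM; IC50 fitted by 4-parameter logistic model.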

[2] = target: human TYK2 catalytic kinase (JH1) domain (Homo sapiens (Human), UniProt P29597); test: ADP-Glo Kinase Assay, recombinant TYK2 catalytic kinase (JH1) domain; details: recombinant JH1 domain 2 nM, 10 μM ATP, JAK3-974 peptide, mean, read-out: TYK2 biochem IC50 (nM) Mean
Outline: as §1

[3] = target: human JAK3 catalytic kinase (JH1) domain (Homo sapiens (Human), UniProt P52333); test: ADP-Glo Kinase Assay, recombinant JAK3 catalytic kinase (JH1) domain; details: recombinant JH1 domain 0.3 nM, 4 μM ATP, JAK3-974 peptide, mean, read-out: JAK3 biochem IC50 (nM) Mean
Outline: as §1

[4] = target: human JAK2 catalytic kinase (JH1) domain (Homo sapiens (Human), UniProt O60674); test: ADP-Glo Kinase Assay, recombinant JAK2 catalytic kinase (JH1) domain; details: recombinant JH1 domain 0.2 nM, 15 μM ATP, JAK3-974 peptide, mean, read-out: JAK2 biochem IC50 (nM) Mean
Outline: as §1

Chain of human TYK2 catalytic kinase (JH1) domain (P29597 897-1176): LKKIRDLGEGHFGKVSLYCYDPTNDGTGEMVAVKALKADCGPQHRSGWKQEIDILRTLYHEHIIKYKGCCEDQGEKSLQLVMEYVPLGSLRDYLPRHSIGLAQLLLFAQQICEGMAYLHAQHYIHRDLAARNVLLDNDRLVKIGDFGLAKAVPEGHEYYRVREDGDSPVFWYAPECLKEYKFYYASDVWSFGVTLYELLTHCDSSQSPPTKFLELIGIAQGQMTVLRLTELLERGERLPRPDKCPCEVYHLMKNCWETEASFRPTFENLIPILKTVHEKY
Chain of human JAK2 catalytic kinase (JH1) domain (O60674 849-1124): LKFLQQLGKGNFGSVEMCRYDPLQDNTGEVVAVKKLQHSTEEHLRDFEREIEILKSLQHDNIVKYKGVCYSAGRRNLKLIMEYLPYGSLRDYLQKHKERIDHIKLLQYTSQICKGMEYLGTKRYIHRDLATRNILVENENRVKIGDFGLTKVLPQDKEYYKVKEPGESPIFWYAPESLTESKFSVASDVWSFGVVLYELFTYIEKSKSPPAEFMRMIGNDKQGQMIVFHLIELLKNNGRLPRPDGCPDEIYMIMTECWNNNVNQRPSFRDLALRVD
Chain of human JAK1 catalytic kinase (JH1) domain (P23458 875-1153): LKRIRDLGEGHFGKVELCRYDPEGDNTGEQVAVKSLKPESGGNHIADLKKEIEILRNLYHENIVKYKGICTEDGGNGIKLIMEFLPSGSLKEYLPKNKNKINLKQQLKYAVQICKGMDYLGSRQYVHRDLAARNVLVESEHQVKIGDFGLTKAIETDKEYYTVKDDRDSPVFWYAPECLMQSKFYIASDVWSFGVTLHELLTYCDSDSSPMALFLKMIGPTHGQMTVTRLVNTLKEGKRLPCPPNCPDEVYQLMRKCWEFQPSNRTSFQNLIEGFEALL
Chain of human JAK3 catalytic kinase (JH1) domain (P52333 822-1111): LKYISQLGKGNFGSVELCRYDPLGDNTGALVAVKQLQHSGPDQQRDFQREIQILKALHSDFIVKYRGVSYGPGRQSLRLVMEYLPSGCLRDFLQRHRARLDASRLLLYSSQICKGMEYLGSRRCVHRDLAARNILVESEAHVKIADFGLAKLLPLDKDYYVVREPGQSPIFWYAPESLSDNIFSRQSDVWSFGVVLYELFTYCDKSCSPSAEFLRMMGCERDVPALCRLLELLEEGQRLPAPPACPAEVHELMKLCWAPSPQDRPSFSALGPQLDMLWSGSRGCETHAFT

SMILES	IC50 [1]	IC50 [2]	IC50 [3]	IC50 [4]
Cn1cc(-c2nc3c(N4CC5CCC(C4)N5C(=O)[C@@H]4C[C@H]4F)c(F)cnc3[nH]2)c(F)n1 [Example 213, (3-(6-fluoro-2-(3-fluoro-1-methyl-1H-pyrazol-4-yl)-3H-imidazo[4,5-b]pyridin-7-yl)-3,8-diazabicyclo[3.2.1]octan-8-yl)((1S,2R)-2-fluorocyclopropyl)methanone]	37 nM	2.5 nM	87 nM	25 nM
Cc1cc(-c2cc3c(N4CC5CCC(C4)N5C(=O)[C@@H]4C[C@H]4F)ccnn3c2)on1 [Example 173]	81 nM	2.4 nM	793 nM	37 nM
O=C(C1CC(F)(F)C1)N1C2CCC1CN(c1ncnn3cc(-c4cnn(C(F)F)c4)cc13)C2 [Example 55, (3,3-difluorocyclobutyl)(3-(6-(1-(difluoromethyl)-1H-pyrazol-4-yl)pyrrolo[2,1-f][1,2,4]triazin-4-yl)-3,8-diazabicyclo[3.2.1]octan-8-yl)methanone]	2790 nM	290 nM	8580 nM	7180 nM
Cn1cc(-c2cc3c(N4CC5CCC(C4)N5C(=O)[C@H]4C[C@@H]4F)ncnn3c2)cn1 (racemic) [Example 61, Rac-((1R,2S)-2-fluorocyclopropyl)(3-(6-(1-methyl-1H-pyrazol-4-yl)pyrrolo[2,1-f][1,2,4]triazin-4-yl)-3,8-diazabicyclo[3.2.1]octan-8-yl)methanone]	992 nM	37.7 nM	3760 nM	1870 nM
Cn1cc(-c2cc3nccc(N4CC5CCC(C4)N5C(=O)[C@@H]4C[C@H]4F)n3n2)cn1 [Example 251, ((1S,2R)-2-fluorocyclopropyl)(3-(2-(1-methyl-1H-pyrazol-4-yl)pyrazolo[1,5-a]pyrimidin-7-yl)-3,8-diazabicyclo[3.2.1]octan-8-yl)methanone]	322 nM	81 nM	2920 nM	472 nM
O=C(C1CC(F)C1)N1C2CCC1CN(c1ncnn3cc(-c4cnn(C(F)F)c4)cc13)C2 (stereo not shown) [Example 48, (3-(6-(1-(difluoromethyl)-1H-pyrazol-4-yl)pyrrolo[2,1-f][1,2,4]triazin-4-yl)-3,8-diazabicyclo[3.2.1]octan-8-yl)(3-fluorocyclobutyl)methanone]	3780 nM	483 nM	9430 nM	8770 nM
O=C([C@H]1CC1(F)F)N1C2CCC1CN(c1ncnn3cc(-c4cnn(C(F)F)c4)cc13)C2 [Example 8, ((R)-2,2-difluorocyclopropyl)(3-(6-(1-(difluoromethyl)-1H-pyrazol-4-yl)pyrrolo[2,1-f][1,2,4]triazin-4-yl)-3,8-diazabicyclo[3.2.1]octan-8-yl)methanone]	226 nM	200 nM	1690 nM	3740 nM
O=C(N1C2CCC1CN(c1ncnn3cc(-c4cnn(C(F)F)c4)cc13)C2)C1(F)CC1 [Example 50, (3-(6-(1-(difluoromethyl)-1H-pyrazol-4-yl)pyrrolo[2,1-f][1,2,4]triazin-4-yl)-3,8-diazabicyclo[3.2.1]octan-8-yl)(1-fluorocyclopropyl)methanone]	1040 nM	295 nM	2020 nM	6150 nM
O=C(N1C2CCC1CN(c1ncnn3cc(-c4cnn(C(F)F)c4)cc13)C2)C1(C(F)(F)F)CC1 [Example 45, (3-(6-(1-(difluoromethyl)-1H-pyrazol-4-yl)pyrrolo[2,1-f][1,2,4]triazin-4-yl)-3,8-diazabicyclo[3.2.1]octan-8-yl)(1-(trifluoromethyl)cyclopropyl)methanone]	7300 nM	988 nM	6010 nM	9490 nM
CC(C)n1cc(-c2cc3c(N4CC5CCC(C4)N5C(=O)C4CC4)ncnn3c2)cn1 [Example 148]	731 nM	136 nM	2140 nM	1650 nM
COc1cc(-c2nc3c(N4CC5CCC(C4)N5S(=O)(=O)C4CC4)ccnc3[nH]2)ccn1 [Example 196]	216 nM	66.3 nM	1000 nM	168 nM
CN(C)c1ccc(-c2cc3c(N4CC5CCC(C4)N5C(=O)[C@@H]4C[C@H]4F)ncnc3[nH]2)cn1 [Example 226, (3-(6-(6-(dimethylamino)pyridin-3-yl)-7H-pyrrolo[2,3-d]pyrimidin-4-yl)-3,8-diazabicyclo[3.2.1]octan-8-yl)((1S,2R)-2-fluorocyclopropyl)methanone]	116 nM	14.9 nM	468 nM	244 nM
COc1cc(-c2cn3nccc(N4CC5CCC(C4)N5C(=O)[C@@H]4C[C@H]4F)c3n2)ccn1 [Example 248, ((1S,2R)-2-fluorocyclopropyl)(3-(2-(2-methoxypyridin-4-yl)imidazo[1,2-b]pyridazin-8-yl)-3,8-diazabicyclo[3.2.1]octan-8-yl)methanone]	23 nM	9.5 nM	515 nM	48 nM
COc1cc(-c2cc3c(N4CC5CCC(C4)N5C(=O)[C@@H]4C[C@H]4F)ncnn3c2)ccn1 [Example 89, ((1S,2R)-2-fluorocyclopropyl)(3-(6-(2-methoxypyridin-4-yl)pyrrolo[2,1-f][1,2,4]triazin-4-yl)-3,8-diazabicyclo[3.2.1]octan-8-yl)methanone]	236 nM	28.2 nM	4240 nM	856 nM
Cn1cc(-c2[nH]c3nccc(N4CC5CCC(C4)N5C(=O)[C@@H]4C[C@H]4F)c3c2C#N)cn1 [Example 250, 4-(8-((1S,2R)-2-fluorocyclopropane-1-carbonyl)-3,8-diazabicyclo[3.2.1]octan-3-yl)-2-(1-methyl-1H-pyrazol-4-yl)-1H-pyrrolo[2,3-b]pyridine-3-carbonitrile]	455 nM	7.1 nM	455 nM	53 nM
CC(C)n1ncc(-c2cc3c(N4CC5CCC(C4)N5C(=O)C4CC4)ncnn3c2)c1F [Example 162]	210 nM	94.9 nM	1250 nM	1620 nM
Cn1cc(-c2cc3c(N4CC5CCC(C4)N5C(=O)C4(F)CC4)ccnc3[nH]2)c(F)n1 [Example 243, (3-(2-(3-fluoro-1-methyl-1H-pyrazol-4-yl)-1H-pyrrolo[2,3-b]pyridin-4-yl)-3,8-diazabicyclo[3.2.1]octan-8-yl)(1-fluorocyclopropyl)methanone]	79 nM	2.8 nM	27 nM	26 nM
O=C([C@@H]1C[C@H]1F)N1C2CCC1CN(c1ccnn3cc(C4CCOC4)cc13)C2 (stereo partly drawn) [Example 175, ((1S,2R)-2-fluorocyclopropyl)(3-(6-(tetrahydrofuran-3-yl)pyrrolo[1,2-b]pyridazin-4-yl)-3,8-diazabicyclo[3.2.1]octan-8-yl)methanone]	≥ 10000 nM	847 nM	≥ 10000 nM	≥ 10000 nM
O=C([C@@H]1C[C@H]1F)N1C2CCC1CN(c1ccnn3cc(-c4cnn(C(F)F)c4)cc13)C2 [Example 17, (3-(6-(1-(difluoromethyl)-1H-pyrazol-4-yl)pyrrolo[1,2-b]pyridazin-4-yl)-3,8-diazabicyclo[3.2.1]octan-8-yl)((1S,2R)-2-fluorocyclopropyl)methanone]	37 nM	1 nM	437 nM	36 nM
O=C([C@H]1C[C@H]1F)N1C2CCC1CN(c1ncnn3cc(-c4cnn(C(F)F)c4)cc13)C2 (single isomer, unassigned) [Example 73]	2350 nM	987 nM	8860 nM	≥ 10000 nM
Cn1cc(-c2cc3c(N4CC5CCC(C4)N5C(=O)C4(F)CC4)ccnc3[nH]2)cn1 [Example 240, (1-fluorocyclopropyl)(3-(2-(1-methyl-1H-pyrazol-4-yl)-1H-pyrrolo[2,3-b]pyridin-4-yl)-3,8-diazabicyclo[3.2.1]octan-8-yl)methanone]	44 nM	4.4 nM	35 nM	42 nM
Cn1cc(-c2cc3c(N4CC5CCC(C4)N5C(=O)[C@@H]4C[C@H]4F)ncnc3[nH]2)cn1 [Example 235, ((1S,2R)-2-fluorocyclopropyl)(3-(6-(1-methyl-1H-pyrazol-4-yl)-7H-pyrrolo[2,3-d]pyrimidin-4-yl)-3,8-diazabicyclo[3.2.1]octan-8-yl)methanone]	117 nM	5.3 nM	338 nM	106 nM
Cn1ccc(-c2cc3c(N4CC5CCC(C4)N5C(=O)[C@@H]4C[C@H]4F)ccnn3c2)cc1=O [Example 171]	136 nM	1.5 nM	322 nM	28 nM
COc1cc(-c2cc3c(N4CC5CCC(C4)N5C(=O)[C@@H]4C[C@H]4F)ccnn3c2)ccn1 [Example 88, ((1S,2R)-2-fluorocyclopropyl)(3-(6-(2-methoxypyridin-4-yl)pyrrolo[1,2-b]pyridazin-4-yl)-3,8-diazabicyclo[3.2.1]octan-8-yl)methanone]	23 nM	1.9 nM	604 nM	46 nM
COc1ccc(-c2cc3c(N4CC5CCC(C4)N5C(=O)C4CC4)ncnn3c2)cn1 [Example 178]	2020 nM	719 nM	6270 nM	10000 nM
